Patent US20070275961A1, “Triazolo ' 1, 5-A ! Pyrimidines and Their Use in Medicine” (VERNALIS (CAMBRIDGE) LIMITED., priority 2003, published 2007)
Like-named read-outs stand apart in the source and are kept apart here.

Assays:
Assay type in all cases: biochemical
Chk1 = molecular target: T1, Chk1 (Homo sapiens, UniProt O14757); assay: Chk1 kinase assay, phosphorylation of Chktide (33P-ATP filtration)
T1 sequence (O14757 1-476): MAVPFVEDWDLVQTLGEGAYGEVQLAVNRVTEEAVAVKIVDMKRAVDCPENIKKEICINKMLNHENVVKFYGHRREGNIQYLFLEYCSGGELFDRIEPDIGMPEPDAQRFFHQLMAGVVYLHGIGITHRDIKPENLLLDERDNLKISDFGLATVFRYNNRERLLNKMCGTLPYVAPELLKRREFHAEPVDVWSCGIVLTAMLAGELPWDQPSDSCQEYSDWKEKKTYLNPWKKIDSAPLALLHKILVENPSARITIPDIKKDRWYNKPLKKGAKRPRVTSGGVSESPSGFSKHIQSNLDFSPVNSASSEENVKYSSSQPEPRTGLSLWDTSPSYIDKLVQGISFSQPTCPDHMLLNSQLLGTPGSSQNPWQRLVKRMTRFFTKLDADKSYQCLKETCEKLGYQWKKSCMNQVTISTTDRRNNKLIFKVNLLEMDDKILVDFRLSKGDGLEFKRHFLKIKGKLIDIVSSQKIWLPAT
Experimental: Assays for the Chk1 kinase activity were carried out by monitoring the phosphorylation of a synthetic peptide Chktide with the amino acid sequence, […]. The assay mixture containing the inhibitor and Chk1 enzyme was mixed together in a microtiter plate in a final volume of 50 μl and incubated for 40 minutes at 30° C.
The assay mixture contained 0.01 mM unlabeled ATP, 0.5 μCi ^33P-γ-ATP, 30 μM Chktide, 0.1 mg/ml BSA, 50 mM Hepes-NaOH pH 7.5 and 11 nM GST-Chk1 enzyme. The reaction was stopped by adding 50 μl of 50 mM phosphoric acid. 90 μl of the mixture was transferred to a pre-wetted 96-well Multiscreen MAPHNOB filtration plate (Millipore) and filtered on a vacuum manifold. The filter plate was washed with three successive additions of 200 μl 50 mM phosphoric acid and then with 100 μl methanol. The filtration plate was dried for 10 min at 65° C., scintillant added and phosphorylated peptide quantified in a scintillation counter (Trilux, PerkinElmer).

PDK1 enzyme = molecular target: T2, PDK1 enzyme (Homo sapiens, UniProt O15530); assay: PDK1 3'-phosphoinositide-dependent kinase assay, phosphorylation of synthetic peptide (33P-ATP filtration)
T2 sequence (O15530 1-556): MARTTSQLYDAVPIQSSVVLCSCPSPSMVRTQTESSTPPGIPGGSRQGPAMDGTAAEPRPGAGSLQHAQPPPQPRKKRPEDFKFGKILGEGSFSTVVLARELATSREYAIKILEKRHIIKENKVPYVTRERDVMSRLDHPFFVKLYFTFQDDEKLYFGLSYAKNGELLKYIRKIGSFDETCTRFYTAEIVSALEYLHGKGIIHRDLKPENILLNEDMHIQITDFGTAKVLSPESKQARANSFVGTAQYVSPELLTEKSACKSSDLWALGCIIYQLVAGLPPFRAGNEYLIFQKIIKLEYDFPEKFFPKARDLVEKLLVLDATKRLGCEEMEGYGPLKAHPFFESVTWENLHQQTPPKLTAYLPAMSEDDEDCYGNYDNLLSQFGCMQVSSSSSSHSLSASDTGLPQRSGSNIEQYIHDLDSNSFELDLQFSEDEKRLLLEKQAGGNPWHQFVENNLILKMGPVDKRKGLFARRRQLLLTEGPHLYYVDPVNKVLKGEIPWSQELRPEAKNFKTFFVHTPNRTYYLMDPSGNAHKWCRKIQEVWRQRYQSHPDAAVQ
Experimental: (§1) The assay mixture containing the inhibitor and PDK1 enzyme was mixed together in a microtiter plate in a final volume of 50 μl and incubated for 60 min at 30° C. The assay mixture contained 0.01 mM unlabeled ATP, 0.01 μCi/μl ^33P-γ-ATP, 0.075 mM peptide, 0.1 mg/ml BSA, 7.5 mM magnesium acetate, 0.05 M Tris.HCl, pH 7.5, 0.5% 2-mercaptoethanol. The reaction was stopped by adding 50 μl of 50 mM phosphoric acid. 90 μl of the mixture were transferred to a pre-wetted 96-well Multiscreen MAPHNOB filtration plate (Millipore) and filtered on a vacuum manifold. The filter plate was washed with three successive additions of 200 μl 50 mM phosphoric acid and then with 100 μl methanol. The filtration plate was dried for 10 min at 65° C., scintillant added and phosphorylated peptide quantified in a scintillation counter (Trilux, PerkinElmer).

[1] = molecular target: CDK2 enzyme, complexed with cyclin A (Homo sapiens, UniProt P24941); assay: CDK2 cyclin dependent kinase assay, phosphorylation of synthetic peptide […] (33P-ATP filtration); settings: Table 1; 0.1 mM ATP
Experimental: as §1, with “and CDK2 enzyme, complexed with cyclin A (0.4 U/ml)” for “and PDK1 enzyme”, “for 40” for “for 60”, “contained 0.1” for “contained 0.01”, “^33P-γ-ATP, 0.03” for “^33P-γ-ATP, 0.075”, “acetate, 50 mM HEPES-NaOH,” for “acetate, 0.05 M Tris.HCl,”, “pH 7.5.” for “pH 7.5, 0.5% 2-mercaptoethanol.”
HEPES is N-[2-hydroxyethyl]piperazine-N′-[2-ethanesulfonic acid]. BSA is bovine serum albumin.

[2] = Table 1, 0.01 mM ATP, read-out: Chk1 IC50
[3] = Table 1, 0.01 mM ATP, read-out: PDK1 IC50
[4] = Table 4, 0.01 mM ATP, read-out: Chk1 IC50
[5] = Table 4, 0.01 mM ATP, read-out: PDK1 IC50

SMILES	IC50 (Chk1; [2])	IC50 (PDK1 enzyme; [3])	IC50 [1]	IC50 (Chk1; [4])	IC50 (PDK1 enzyme; [5])	also measured
NS(=O)(=O)c1ccc(Nc2cc(Cl)nc3ncnn23)cc1 [Example 1, 7-(4-Aminosulfonylphenylamino)-5-chlorotriazolol[1,5-a]pyrimidine]	> 200 µM	> 200 µM	20.1 µM			
NS(=O)(=O)c1ccc(Nc2cc(OC3CCCCC3)nc3ncnn23)cc1 [Example 2, 7-(4-Aminosulfonylphenylamino)-5-cyclohexyloxytriazolo[1,5-a]pyrimidine]	> 200 µM	> 200 µM				
Cc1cccc(-c2cc(Nc3ccc(S(N)(=O)=O)cc3)n3ncnc3n2)c1 [Example 3, 7-(4-Aminosulfonylphenylamino)-5-(3-methylphenyl)triazolo[1,5-a]pyrimidine]	> 200 µM	> 200 µM	1.82 µM			
CCN(CC)c1cc(Nc2ccc(S(N)(=O)=O)cc2)n2ncnc2n1 [Example 4, 4-(5-Diethylamino-[1,2,4]triazolo[1,5-a]pyrimidine-7-ylamino)-benzenesulfonamide]	> 200 µM	> 200 µM	0.39 µM			
C[C@H]1CCCC(Oc2cc(Nc3ccc(S(N)(=O)=O)cc3)n3ncnc3n2)C1 (some centres unmarked) [Example 5]	> 200 µM	> 200 µM	6.4 µM			
Clc1cc(NCc2ccccc2)n2ncnc2n1 [Example 6]	> 200 µM	> 200 µM	85 µM			
O=S(=O)(c1ccc(Nc2cc(Cl)nc3ncnn23)cc1)N1CCC(O)CC1 [Example 7]	> 200 µM	> 200 µM	22.7 µM			
CN(C)S(=O)(=O)c1ccc(Nc2cc(Cl)nc3ncnn23)cc1 [Example 8]	> 200 µM	> 200 µM	48.2 µM			
CC(C)Nc1cc(Nc2ccc(S(N)(=O)=O)cc2)n2ncnc2n1 [Example 9]	> 200 µM	> 200 µM	0.89 µM			
NS(=O)(=O)c1ccc(Nc2cc(NC(CCO)c3ccccc3)nc3ncnn23)cc1 (centres unmarked) [Example 10]	> 200 µM	> 200 µM	5.74 µM			
NS(=O)(=O)c1ccc(Nc2cc(NC3CCCC3)nc3ncnn23)cc1 [Example 11]	> 200 µM	> 200 µM	0.55 µM			
CCOc1cc(Nc2ccc(S(N)(=O)=O)cc2)n2ncnc2n1 [Example 12]	> 200 µM	> 200 µM	13 µM			
NS(=O)(=O)c1ccc(Nc2cc(Oc3ccccc3)nc3ncnn23)cc1 [Example 13]	> 200 µM	> 200 µM	20.1 µM			
CC(C)COc1cc(Nc2ccc(S(N)(=O)=O)cc2)n2ncnc2n1 [Example 14]	> 200 µM	> 200 µM	1.85 µM			
NS(=O)(=O)c1ccc(CNc2cc(OC3CCCCC3)nc3ncnn23)cc1 [Example 15]	> 200 µM	> 200 µM	11.3 µM			
COc1ccc(Br)cc1-c1cc(N[C@H]2CC[C@H](O)CC2)n2ncnc2n1 [Example 16]	> 200 µM	> 200 µM	48 µM			
O=S(=O)(c1ccc(Nc2cc(Cl)nc3ncnn23)cc1)N1CCOCC1 [Example 17]	> 200 µM	> 200 µM	16.7 µM			
NS(=O)(=O)c1ccc(Nc2cc(N[C@H]3CC[C@H](N)CC3)nc3ncnn23)cc1 [Example 36]	93.5 µM	43.3 µM				
NS(=O)(=O)c1ccc(Nc2cc(NC3CCCCC3)nc3ncnn23)cc1 [Example 37]	> 200 µM	64 µM				

SMILES	IC50 (Chk1; [2])	IC50 (PDK1 enzyme; [3])	IC50 [1]	IC50 (Chk1; [4])	IC50 (PDK1 enzyme; [5])	also measured
NS(=O)(=O)c1ccc(Nc2cc(OCC3CCCCC3)nc3ncnn23)cc1 [Example 51]	> 200 µM	> 200 µM				
Brc1cccc(-c2cc(NCc3ccncc3)n3ncnc3n2)c1 [Example 55]						IC50 (Chk1): > 200 µM; IC50 (PDK1 enzyme): > 200 µM
CCN(CC)c1cc(NCC2CCNCC2)n2ncnc2n1 [Example 86]						IC50 (Chk1; Table 2, 0.01 mM ATP, read-out: Chk1 IC50): > 200 µM; IC50 (PDK1 enzyme; Table 2, 0.01 mM ATP, read-out: PDK1 IC50): > 200 µM
NC(=O)c1ccc(Nc2cc(-c3cccc(O)c3)n3ncnc3n2)cc1 [Example 142]				3.92 µM	4.66 µM	
NC(=O)Cc1ccc(Nc2cc(-c3ccc4c(c3)OCO4)n3ncnc3n2)cc1 [Example 143]				4.71 µM	11.4 µM	
CCOc1cccc(-c2cc(Nc3ccc(C(N)=O)cc3)nc3ncnn23)c1 [Example 144]				68.3 µM	12.2 µM	
NC(=O)c1ccc(Nc2cc(-c3cccc(OCC4CCNCC4)c3)n3ncnc3n2)cc1 [Example 150]				19.7 µM	14.6 µM	
Fc1cccc(-c2cc(Nc3cccc(Oc4ccccc4)c3)nc3ncnn23)c1 [Example 152]				32.7 µM	13.4 µM	
Fc1cccc(-c2cc(Nc3ccc(Oc4ccccc4)cc3)nc3ncnn23)c1 [Example 153]				24.7 µM	12 µM	
Fc1cccc(-c2cc(Nc3ccc(Sc4ccccc4)cc3)nc3ncnn23)c1 [Example 155]				15.1 µM	12.6 µM	
O=S(=O)(Nc1nccs1)c1ccc(Nc2cc(-c3cccc(F)c3)n3ncnc3n2)cc1 [Example 156]				13 µM	7.94 µM	
CN(C)c1ccc(Nc2cc(-c3cccc(F)c3)n3ncnc3n2)cc1 [Example 158]				6.75 µM	10.5 µM	
CNS(=O)(=O)Cc1ccc(Nc2cc(-c3cccc(F)c3)n3ncnc3n2)cc1 [Example 159]				22.6 µM	7.66 µM	
CCCc1cc(OC)cc(-c2cc(Nc3ccc(C(N)=O)cc3)nc3ncnn23)c1 [Example 160]				15.8 µM	1.32 µM	
CCCc1cc(OCCN)cc(-c2cc(Nc3ccc(C(N)=O)cc3)nc3ncnn23)c1 [Example 161]				9.04 µM	1.66 µM	
CCCc1cc(OCCN(C)C)cc(-c2cc(Nc3ccc(C(N)=O)cc3)nc3ncnn23)c1 [Example 162]				31.7 µM	7.34 µM	
CN(C)CCOc1cccc(-c2cc(Nc3ccc(C(N)=O)cc3)nc3ncnn23)c1 [Example 163]				9.82 µM	5.44 µM	
CCc1cc(O)cc(-c2cc(Nc3ccc(C(=O)NCCN(CC)CC)cc3)nc3ncnn23)c1 [Example 164]				0.66 µM	1.6 µM	
CCc1cc(OCCN)cc(-c2cc(Nc3ccc(C(=O)NCCN(CC)CC)cc3)nc3ncnn23)c1 [Example 167]				3.39 µM	3.99 µM	
